Experimental data reported in patent US8673889B2, “BLT2-mediated disease, BLT2 binding agent and the compound” (Ono Pharmaceutical Co., Ltd., priority 2004, dated 2014).

Assays:
Type in all cases: cell-based
[1] = target: T1, BLT2 (Homo sapiens, UniProt Q9NPC1); experiment: Evaluation of BLT2 agonistic activity by monitoring the variation of intracellular Ca2+ concentration; set-up: expressed in transfected cells; conditions: for BLT2 agonistic activity: classification of the compounds (1) to (46)
T1 sequence (Q9NPC1 1-358): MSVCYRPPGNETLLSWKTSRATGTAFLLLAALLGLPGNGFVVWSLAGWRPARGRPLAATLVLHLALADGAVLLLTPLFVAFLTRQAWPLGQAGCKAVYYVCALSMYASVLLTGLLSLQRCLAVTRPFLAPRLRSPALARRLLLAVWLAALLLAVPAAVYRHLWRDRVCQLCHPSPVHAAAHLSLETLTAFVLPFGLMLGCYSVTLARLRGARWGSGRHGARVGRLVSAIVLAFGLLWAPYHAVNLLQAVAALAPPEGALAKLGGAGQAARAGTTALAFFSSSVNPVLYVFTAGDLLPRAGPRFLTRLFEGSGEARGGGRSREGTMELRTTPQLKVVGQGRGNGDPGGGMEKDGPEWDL

[2] = target: T1, BLT2; experiment: Evaluation of BLT2 antagonistic activity by monitoring the variation of intracellular Ca2+ concentration; set-up: expressed in transfected cells; host or cells: CHO cells
Experimental: (§1) The receptor antagonist activity was evaluated by using human BLT2 gene-overexpressing Chinese Hamster Ovar (CHO) cells (see J. Exp. Med. Volume 192, Number 3 2000, and 421-.). BLT2-expressing cells were cultured in Ham 's F1 medium (GIBCO BRL and No. 11765-047) containing 10% FBS (fetal bovine serum), penicillin/streptomycin and blasticidin (5 μg/ml). First, to make the cells to take Fura2-AM (Dojindo and No. 348-05831), the cells were incubated in 5 μM Fura2-AM solution (Ham's F1 medium containing 10% FBS, 20 mM HEPES buffer (pH7.4) and 2.5 mM probenecid (Sigma and No. P-8761)) at 37° C. for 60 minutes. Then, the cells were washed once with Hanks solution containing 20 mM HEPES buffer (pH7.4) and 2.5 mM probenecid, and soaked in Hanks solution until assay. The plate was sat up on fluorescent drug screening system (Hamamatsu Photonics FDSS-2000) and measured without any stimulation for 30 seconds, to which the compound solution of the present invention was added. […] The compound of the present invention was dissolved to dimethylsulfoxide (DMSO) and added in order that the final concentration is […]. […] IC50 value is a concentration of the compound of the present invention in which the inhibition ratio is 50%. Also, BLT1 antagonistic activity was measured by the same way.

[3] = target: T2, BLT1 (Homo sapiens, UniProt Q15722); experiment: BLT1 antagonistic activity measured by the same way (intracellular Ca2+); conditions: measured by the same way as BLT2
T2 sequence (Q15722 whole entry, species assumed): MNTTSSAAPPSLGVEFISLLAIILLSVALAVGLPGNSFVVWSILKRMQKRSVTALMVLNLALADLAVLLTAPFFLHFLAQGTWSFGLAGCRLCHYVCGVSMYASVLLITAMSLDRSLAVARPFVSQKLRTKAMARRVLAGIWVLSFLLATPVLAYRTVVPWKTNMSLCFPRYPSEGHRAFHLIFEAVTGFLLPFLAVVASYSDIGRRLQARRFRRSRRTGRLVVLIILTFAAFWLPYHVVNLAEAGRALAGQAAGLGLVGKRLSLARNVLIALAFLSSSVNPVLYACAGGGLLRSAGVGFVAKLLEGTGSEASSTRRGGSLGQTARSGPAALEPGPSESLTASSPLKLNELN
Experimental: as §1

[4] = target: T2, BLT1; experiment: BLT1 agonistic activity measured by the same way (intracellular Ca2+); conditions: measured by the same way as BLT2
[5] = system: mouse primary culture keratinocytes; experiment: ERK phosphorylation (2) in mouse primary culture keratinocytes; conditions: FIG. 7
[6] = target: T3, mBLT2 (Mus musculus, UniProt Q9JJL9); experiment: ERK phosphorylation (1) in mBLT2-expressing CHO cells; conditions: ligand 5 minutes, FIG. 5
T3 construct: mBLT2 ORF was amplified by PCR using a sense primer having BamHI restriction enzyme site; expressed in transfected cells
T3 sequence (Q9JJL9 1-360): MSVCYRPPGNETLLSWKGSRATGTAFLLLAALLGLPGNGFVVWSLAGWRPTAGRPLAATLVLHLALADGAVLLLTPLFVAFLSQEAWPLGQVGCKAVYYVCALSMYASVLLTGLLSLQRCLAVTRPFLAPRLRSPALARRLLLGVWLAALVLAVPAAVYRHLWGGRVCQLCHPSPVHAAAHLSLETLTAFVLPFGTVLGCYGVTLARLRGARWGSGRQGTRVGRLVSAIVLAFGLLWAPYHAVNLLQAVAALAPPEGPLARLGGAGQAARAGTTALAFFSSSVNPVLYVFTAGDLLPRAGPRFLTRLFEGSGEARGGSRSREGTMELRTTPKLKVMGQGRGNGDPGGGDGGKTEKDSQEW
Description: (§2) mBLT2 ORF was amplified by PCR using a sense primer having BamHI restriction enzyme site (sense primer; 5′-[…]-3′ (SEQ ID NO.1)) and an antisense primer having EcoRI restriction enzyme site (antisense primer; 5′-[…]-3′ (SEQ ID NO.2)). The PCR product was digested with BamHI and EcoRI and inserted in expression plasmid (pcDNA3 Invitrogen). The inserted sequence was confirmed by the DNA sequence. Plasmid DNA ([…]) was transfected into CHO cells cultured in Ham's F-12 medium containing 10% fetal bovine serum and antibiotic (streptomycin (100 μg/mL) and penicillin (100 μg/L)) in cell culture plates (6 cm). The resistant strains were obtained by culturing for 2 weeks in the existence of antibiotic (G418 [Wako], 1 mg/mL). The stable expressing strains were obtained by culturing 19 obtained resistant strains with limiting dilution method.

[7] = target: T3, mBLT2; experiment: Measurement of intracellular Ca2+ concentration in mBLT2-expressing CHO cells; conditions: FIG. 4, read-out: EC50 value, rise of the intracellular calcium concentration
Description: as §2, with “The stable expressing strains were obtained by culturing 19 obtained resistant strains with limiting dilution method.” left out
mBLT2-expressing CHO cells prepared by Biological Example 3 were cultured in modified Hepes-Tyrode's BSA buffer (Hepes-NaOH (25 mM, pH7.4), NaCl (140 mM), KCl (2.7 mM), CaCl2(10 nM), NaHCO3(12 mM), D-Glucose (5.6 mM), NaH2PO4(0.37 mM), MgCl2(0.49 mM), cremophour (0.01%), fatty acid-free BSA (fraction V, 0.1w/v %)) containing fluorochrome (Fura-2 AM [Dojin], 3 μm) at 37° C. for 2 hours to make to take fluorochrome. […] Dimethylsulfoxide (DMSO) solution (5 μL) containing ligand was added to the cell suspension, of which the intracellular calcium concentration was monitored (excitation wavelength 340 nm and 380 nm and fluorescent wave-length 510 nm).

[8] = target: T4, mBLT1 (Mus musculus, UniProt O88855); experiment: ERK phosphorylation (1) in mBLT1-expressing CHO cells; conditions: ligand 5 minutes, FIG. 5
T4 construct: expressed in transfected cells; host or cells: CHO cells
T4 sequence (O88855 whole entry): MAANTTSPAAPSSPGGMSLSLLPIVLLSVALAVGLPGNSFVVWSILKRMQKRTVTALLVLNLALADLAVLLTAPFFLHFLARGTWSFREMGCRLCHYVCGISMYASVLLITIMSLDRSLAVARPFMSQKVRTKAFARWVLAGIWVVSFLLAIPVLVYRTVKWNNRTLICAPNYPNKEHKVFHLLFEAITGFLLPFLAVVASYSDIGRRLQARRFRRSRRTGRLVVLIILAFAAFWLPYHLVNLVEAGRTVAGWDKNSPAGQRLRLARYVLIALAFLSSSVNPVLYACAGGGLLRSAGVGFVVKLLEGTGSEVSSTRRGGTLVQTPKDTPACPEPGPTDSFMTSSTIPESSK

SMILES | BLT2 agonistic activity [1] | other results
CCCCN(Cc1ccc(-c2ccccc2-c2nnn[nH]2)cc1)C(=O)NCCc1ccccc1 [(5), N-butyl-N′-(2-phenylethyl)-N-{[2′-(1H-tetrazol-5-yl)biphenyl-4-yl]methyl}urea] | BLT2 agonistic activity | –
CCCCN(Cc1ccc(-c2ccccc2-c2nnn[nH]2)cc1)C(=O)NC(C)C [(7), N-butyl-N′-isopropyl-N-{[2′-(1H-tetrazol-5-yl)biphenyl-4-yl]methyl}urea] | BLT2 agonistic activity | –
CCCCN(Cc1ccc(-c2ccccc2-c2nnn[nH]2)cc1)C(=O)NCCc1ccc(O)cc1 [(9), N-butyl-N′-[2-(4-hydroxyphenyl)ethyl]-N-{[2′-(1H-tetrazol-5-yl)biphenyl-4-yl]methyl}urea] | BLT2 agonistic activity | –
CCCCN(Cc1ccc(-c2ccccc2-c2nnn[nH]2)cc1)C(=S)NCC(=O)OC [(10), methyl N-[(butyl {[2′-(1H-tetrazol-5-yl)biphenyl-4-yl]methyl}amino)carbonothioyl]glycinate] | BLT2 agonistic activity | –
CCCCNC(=O)N(CCCC)Cc1ccc(-c2ccccc2-c2nnn[nH]2)cc1 [(11), N,N′-dibutyl-N-{[2′-(1H-tetrazol-5-yl)biphenyl-4-yl]methyl}urea] | BLT2 agonistic activity | –
CCCCN(Cc1ccc(-c2ccccc2-c2nnn[nH]2)cc1)C(=O)NC1CCCCC1 [(12), N-butyl-N′-cyclohexyl-N-{[2′-(1H-tetrazol-5-yl)biphenyl-4-yl]methyl}urea] | BLT2 agonistic activity | –
CCCCN(Cc1ccc(-c2ccccc2-c2nnn[nH]2)cc1)C(=O)Nc1ccccc1 [(13), N-butyl-N′-phenyl-N-{[2′-(1H-tetrazol-5-yl)biphenyl-4-yl]methyl}urea] | BLT2 agonistic activity | –
CCCCN(Cc1ccc(-c2ccccc2-c2nnn[nH]2)cc1)C(=O)Nc1cccc(OC)c1 [(16), N-butyl-N′-(3-methoxyphenyl)-N-{[2′-(1H-tetrazol-5-yl)biphenyl-4-yl]methyl}urea] | BLT2 agonistic activity | –
CCCCN(Cc1ccc(-c2ccccc2-c2nnn[nH]2)cc1)C(=O)Nc1ccc(OC)cc1 [(17), N-butyl-N′-(4-methoxyphenyl)-N-{[2′-(1H-tetrazol-5-yl)biphenyl-4-yl]methyl}urea] | BLT2 agonistic activity | –
CCCCN(Cc1ccc(-c2ccccc2-c2nnn[nH]2)cc1)C(=O)Nc1cccc(C(=O)OCC)c1 [(19)] | BLT2 agonistic activity | –
CCCCN(Cc1ccc(-c2ccccc2-c2nnn[nH]2)cc1)C(=O)Nc1ccc(C)cc1 [(20), N-butyl-N′-(4-methylphenyl)-N-{[2′-(1H-tetrazol-5-yl)biphenyl-4-yl]methyl}urea] | BLT2 agonistic activity | –
O=C([O-])c1ccc(-c2cccc(CN(CCCc3ccccc3)C(=O)CCc3ccccc3)c2)cc1.[Na+] [Example 1(32), sodium 3′-{[(3-phenylpropanoyl)(3-phenylpropyl)amino]methyl}-1,1′-biphenyl-4-carboxylate] | – | IC50 [2]: 1800 nM; BLT1 antagonistic activity [3]: did not have BLT1 antagonistic activity
O=C(Cc1ccccc1)NCc1ccc(-c2ccccc2C(=O)O)cc1 [Example 13, 4′-{[(phenylacetyl)amino]methyl}-1,1′-biphenyl-2-carboxylic acid] | – | IC50 [1]: 45 nM; BLT1 agonistic activity [4]: did not have BLT1 agonistic activity
CCCCC/C=C\C[C@@H](O)/C=C/C=C/C=C\[C@@H](O)CCCC(=O)O [LTB4, 5-[S], 12-[R]-dihydroxy-6,14-cis-8,10-trans-eicosatetraenoic acid, reference compound] | – | ERK phosphorylation [5]: induced ERK phosphorylation; ERK phosphorylation [6]: induced; EC50 [7]: 121 nM; ERK phosphorylation [8]: induced

Further lines, with some results ahead:

BLT2 agonistic activity [1] | SMILES | other results
BLT2 agonistic activity | CCCCN(Cc1ccc(-c2ccccc2-c2nnn[nH]2)cc1)C(=O)N[C@@H](C)c1ccccc1 [(21), N-butyl-N′-[(1S)-1-phenylethyl]-N-{[2′-(1H-tetrazol-5-yl)biphenyl-4-yl]methyl}urea] | –
BLT2 agonistic activity | CCCCN(Cc1ccc(-c2ccccc2-c2nnn[nH]2)cc1)C(=O)NCc1ccccc1 [(22), N′-benzyl-N-butyl-N-{[2′-(1H-tetrazol-5-yl)biphenyl-4-yl]methyl}urea] | –
BLT2 agonistic activity | CCCCN(Cc1ccc(-c2ccccc2-c2nnn[nH]2)cc1)C(=O)Nc1ccc(F)c(F)c1 [(30), N-butyl-N′-(3,4-difluorophenyl)-N-{[2′-(1H-tetrazol-5-yl)biphenyl-4-yl]methyl}urea] | –
BLT2 agonistic activity | CCCCN(Cc1ccc(-c2ccccc2-c2nnn[nH]2)cc1)C(=O)NC(=O)OCC [(34), ethyl[(butyl{[2′-(1H-tetrazol-5-yl)biphenyl-4-yl]methyl}amino)carbonyl]carbamate] | –
BLT2 agonistic activity | CCCCN(Cc1ccc(-c2ccccc2-c2nnn[nH]2)cc1)C(=O)Nc1ccccc1O [(39), N-butyl-N′-(2-hydroxyphenyl)-N-{[2′-(1H-tetrazol-5-yl)biphenyl-4-yl]methyl}urea] | –
BLT2 agonistic activity | CCCCN(Cc1ccc(-c2ccccc2-c2nnn[nH]2)cc1)C(=O)Nc1sc2c(c1C(=O)O)CCCC2 [(40), 2-{[(butyl{[2′-(1H-tetrazol-5-yl)biphenyl-4-yl]methyl}amino)carbonyl]amino}-4,5,6,7-tetrahydro-1-benzothiophen-3-carboxylic acid] | –
BLT2 agonistic activity | CCCCN(Cc1ccc(-c2ccccc2-c2nnn[nH]2)cc1)C(=O)NCC1CCCO1 (stereo not drawn) [(43), N-butyl-N′-(tetrahydrofuran-2-ylmethyl)-N-{[2′-(1H-tetrazol-5-yl)biphenyl-4-yl]methyl}urea] | –
BLT2 agonistic activity | CCCCN(Cc1ccc(-c2ccccc2-c2nnn[nH]2)cc1)C(=O)NCCN1CCOCC1 [(45), N-butyl-N′-(2-morpholin-4-ylethyl)-N-{[2′-(1H-tetrazol-5-yl)biphenyl-4-yl]methyl}urea] | –
